ChEMBL document CHEMBL5316297, “Mechanistic Insight of Synthesized 1,4-Dihydropyridines as an Antidiabetic Sword against Reactive Oxygen Species” (J Med Chem, 2023)
The source made the active and inactive calls. No cut-off for these calls is given here.

Assays:
[1] = Cytotoxicity against human MRC5 cells assessed as cell growth inhibition at 10 uM relative to control; format: toxicity, cell-based; conditions: read-out: GI
[2] = Toxicity in high fat diet-STZ-induced diabetic Swiss albino mouse model assessed as changes in body weight at 0.2 mmol/Kg/day, po administered for 14 days (reference value: 26.6 to 27.8 g); format: organism-based; conditions: in vivo, 336 h, time 14 day
Mus musculus [3] = assay: Antioxidant activity against high fat diet-STZ-induced diabetic Swiss albino mouse model assessed as serum catalase level at 0.2 mmol/Kg/day, po administered for 14 days (reference value: 378.22+/- 14.45 U/ml); format: functional; conditions: time 14 day
[4] = Cytotoxicity against human THLE-2 cells assessed as cell growth inhibition; format: toxicity, cell-based
[5] = AUC in Swiss albino mouse plasma at 0.2 mmol/Kg, po measured after 24 hrs by HPLC analysis; format: ADME, organism-based; set-up: dose 0.2 mmol/Kg, time 24 hrs, route po; conditions: in vivo
[6] = Cytotoxicity against human WPE1-NA22 cells assessed as cell growth inhibition; format: toxicity, cell-based
[7] = Acute toxicity in Swiss albino mouse assessed as effect on mortality up to 2000 mg/kg, po administered for 14 days; format: organism-based; conditions: in vivo, 336 h, time 14 day
[8] = Cytotoxicity against human HCN-1A cells assessed as cell growth inhibition at 10 uM relative to control; format: toxicity, cell-based; conditions: read-out: GI
Alpha glucosidase = Alpha glucosidase (Homo sapiens, UniProt O43451+P10253+P14410+Q2M2H8); assay: Inhibition of alpha glucosidase (unknown origin) measured after 60 mins; format: protein assay
Alpha amylase = target: T1, Alpha amylase (Homo sapiens, UniProt P0DUB6); assay: Inhibition of alpha amylase (unknown origin) measured after 20 to 25 mins
T1 sequence (P0DUB6 whole entry): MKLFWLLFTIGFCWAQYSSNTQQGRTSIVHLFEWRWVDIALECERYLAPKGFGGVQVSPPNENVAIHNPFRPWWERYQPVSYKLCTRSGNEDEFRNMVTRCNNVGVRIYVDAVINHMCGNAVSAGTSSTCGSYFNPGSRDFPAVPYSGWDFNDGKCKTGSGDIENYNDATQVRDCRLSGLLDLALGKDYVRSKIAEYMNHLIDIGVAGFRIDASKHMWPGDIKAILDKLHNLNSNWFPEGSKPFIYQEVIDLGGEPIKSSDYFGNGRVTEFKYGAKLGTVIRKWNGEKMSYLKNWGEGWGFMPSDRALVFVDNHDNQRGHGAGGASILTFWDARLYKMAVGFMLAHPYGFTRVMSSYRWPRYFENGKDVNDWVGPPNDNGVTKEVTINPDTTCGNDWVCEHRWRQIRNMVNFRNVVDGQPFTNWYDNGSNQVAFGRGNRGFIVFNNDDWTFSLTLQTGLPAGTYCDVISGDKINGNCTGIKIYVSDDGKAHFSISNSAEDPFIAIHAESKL

[9] = Half life in Swiss albino mouse plasma at 0.2 mmol/Kg, po measured after 24 hrs by HPLC analysis; format: ADME, organism-based
Mus musculus [10] = assay: Antidiabetic activity against high fat diet-STZ-induced diabetic Swiss albino mouse model assessed as reduction in blood glucose level at 0.2 mmol/Kg/day, po administered for 14 days relative to control; format: functional; set-up: scale not given: the % may be the effect or the level left; conditions: time 14 day
[11] = Acute toxicity in Swiss albino mouse assessed as toxic symptoms up to 2000 mg/kg, po administered for 14 days; format: organism-based; conditions: in vivo, 336 h, time 14 day
[12] = target: T2, Sodium/glucose cotransporter 2 (Homo sapiens) (UniProt P31639); assay: Inhibition of human SGLT2 by liquid scintillation counter analysis relative to canagliflozin; conditions: concentration not given here
T2 sequence (whole entry): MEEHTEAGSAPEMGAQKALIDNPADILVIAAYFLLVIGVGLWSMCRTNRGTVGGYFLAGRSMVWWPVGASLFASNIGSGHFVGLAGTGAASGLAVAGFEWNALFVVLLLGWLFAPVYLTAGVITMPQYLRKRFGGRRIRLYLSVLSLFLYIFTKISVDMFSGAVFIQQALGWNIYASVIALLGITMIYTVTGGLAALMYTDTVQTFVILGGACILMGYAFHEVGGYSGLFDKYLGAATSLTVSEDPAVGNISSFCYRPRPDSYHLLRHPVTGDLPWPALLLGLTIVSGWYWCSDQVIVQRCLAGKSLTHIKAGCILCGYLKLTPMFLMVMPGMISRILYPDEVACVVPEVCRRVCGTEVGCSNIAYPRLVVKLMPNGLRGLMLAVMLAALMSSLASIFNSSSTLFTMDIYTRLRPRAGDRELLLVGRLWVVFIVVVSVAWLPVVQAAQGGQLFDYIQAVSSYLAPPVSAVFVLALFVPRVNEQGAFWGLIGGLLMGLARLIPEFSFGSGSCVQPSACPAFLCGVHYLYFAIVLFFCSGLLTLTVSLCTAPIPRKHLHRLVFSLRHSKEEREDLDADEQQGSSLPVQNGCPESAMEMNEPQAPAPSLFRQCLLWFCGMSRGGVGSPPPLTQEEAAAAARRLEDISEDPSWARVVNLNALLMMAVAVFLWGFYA

Mus musculus [13] = assay: Antioxidant activity against high fat diet-STZ-induced diabetic Swiss albino mouse model assessed as serum SOD level at 0.2 mmol/Kg/day, po administered for 14 days (reference value: 273.01+/- 6.23 U/ml); format: functional; conditions: time 14 day
[14] = Cytotoxicity against human BJ cells assessed as cell growth inhibition; format: toxicity, cell-based
Mus musculus [15] = assay: Antidiabetic activity against high fat diet-STZ-induced diabetic Swiss albino mouse model assessed as reduction in blood glucose level at 0.2 mmol/Kg/day, po administered for 14 days; format: functional; conditions: time 14 day
[16] = Cytotoxicity against human HCN-1A cells assessed as cell growth inhibition; format: toxicity, cell-based
[17] = Cytotoxicity against human ECT1/E6E7 cells assessed as cell growth inhibition; format: toxicity, cell-based
INS1 = assay: Induction of apoptosis in rat INS1 cells assessed as early apoptotic cells at 1 uM incubated for 36 hrs by Annexin V-FITC/ propidium iodide staining based flow cytometry analysis (reference value: 0.34%); format: functional
Mus musculus [18] = assay: Antidiabetic activity against high fat diet-STZ-induced diabetic Swiss albino mouse model assessed as induction of beta cell regeneration in pancreas at 0.2 mmol/kg/day, po administered for 14 days by haematoxylin and eosin staining based analysis; format: functional, organism-based; conditions: Pancreatic beta cell, time 14.0 day

Structure (SMILES): CCOC(=O)C1=C(C)NC(C)=C(C(=O)OCC)C1c1cccc2c1OCO2
- inhibition at 10 µM [1]: 18.6%
- Activity [2]: 26.9 g
- Activity (Mus musculus [3]): 271.11 U/ml
- GI50 [4]: 67.8 µM
- AUC [5]: 36.7 ng·h/mL
- GI50 [6]: 24.9 µM
- Activity [7]: Non-Toxic
- inhibition at 10 µM [8]: 33.1%
- IC50 (Alpha glucosidase): 4.48 µM
- IC50 (Alpha amylase): 17.32 µM
- half-life [9]: 1.9 h
- Activity (Mus musculus [10]): 72.97%
- Activity [11]: Non-Toxic
- inhibition [12]: < 1%
- Activity (Mus musculus [13]): 236.14 U/ml
- GI50 [14]: 15.2 µM
- Activity (Mus musculus [15]): 80.6 mg/dL
- GI50 [16]: 28.7 µM
- GI50 [17]: 3.74 µM
- Activity (INS1): 0.27%
- Activity (Mus musculus [18]): Active
